Measurements: US20240140935A1, “NON-COVALENT DIMER CATION, SALT THEREOF, PREPARATION METHOD THEREOF, AND USE THEREOF AS ANTIOXIDANT” (SUZHOU PROTONATION CHAIN BIOTECHNOLOGY CO., LTD., priority 2022, published 2024)

Experiments:
[1] = tested on: L02 human normal hepatocytes; assay: Palmitate-induced non-alcoholic fatty liver disease cell model, levels of ROS, MDA, GSH, SOD and ATP in cell lysate; type: cell-based
Protocol: (§1) The salts of Example 1, Example 16, and Example 13 were taken as the compound of experimental groups, vitamin E was taken as the compound of control group. A blank group (without palmitate) and a model group (with palmitate but with neither the salt of the present application nor vitamin E) were also set.
L02 human normal hepatocytes were uniformly inoculated into a 96-well plate, about 5,000 cells per well. The cells were cultured in a complete DMEM for 6 h. After the cells were completely adhered to the wall, all the media were removed, 100 μL of serum-free medium containing 0.05 mg/mL palmitate was added to each well (for the blank group, a serum-free medium without palmitate), and the cells were cultured for 24 h.
Then, all the media were removed, 100 μL of serum-free DMEM containing […] compound of experimental groups or control group was added to each well (for the blank group and the model group, serum-free DMEM without the compound) according to the groups, and the cells were cultured for 24 h.
(§2) 50 μL of RIPA lysis buffer (strong) was added to each well to lyse the cells, and levels of reactive oxygen species, malondialdehyde, glutathione, superoxide dismutase, and adenosine triphosphate in the cells of each group were detected by using corresponding chemical reagents.

[2] = tested on: L02 human normal hepatocytes; assay: Carbon tetrachloride hepatotoxicity cell model, levels of ROS, MDA, GSH, SOD and ATP in cell lysate; type: cell-based
Protocol: as §1, with “carbon tetrachloride)” for “palmitate)”, “carbon tetrachloride” for “palmitate”
L02 human normal hepatocytes were uniformly inoculated into a 96-well plate, about 5,000 cells per well. The cells were cultured in a complete DMEM for 6 h. After the cells were completely adhered to the wall, all the media were removed, 100 μL of serum-free DMEM containing 0.02 mg/mL carbon tetrachloride (for the blank group, a serum-free medium without carbon tetrachloride) was added to each well, and the cells were cultured for 12 h. Then, all the media were removed, 100 μL of serum-free DMEM containing […] compound of experimental groups or control group was added to each well (for the blank group and the model group, serum-free DMEM without the compound) according to the groups, and the cells were cultured for 24 h.
as §2

vitamin E
level of ROS in the cells ([1]; FIG. 4 (a)): only slightly reduce | level of MDA in the cells ([1]; FIG. 4 (b)): only slightly reduce | level of GSH in the cells ([1]; FIG. 4 (c)): only slightly increase | level of SOD in the cells ([1]; FIG. 4 (d)): only slightly increase | level of ATP in the cells ([1]; FIG. 4 (e)): only partially increase | level of ROS in the cells ([2]; FIG. 6 (a)): only slightly reduce | level of MDA in the cells ([2]; FIG. 6 (b)): only slightly reduce | level of GSH in the cells ([2]; FIG. 6 (c)): only slightly increase | level of SOD in the cells ([2]; FIG. 6 (d)): only slightly increase | level of ATP in the cells ([2]; FIG. 6 (e)): only partially increase
